Source: patent publication US20260345561A1, “METHODS AND COMPOSITIONS FOR USE IN TREATING AUTOSOMAL RECESSIVE POLYCYSTIC KIDNEY DISEASE (ARPKD)” (The General Hospital Corporation, priority 2022, published 2026)
“Also recorded” adds a separate entry of the source. Read-outs that look alike come from different tables or passages of the source.

Legend:
PKHD1−/− organoids [1] = assay: CDH1+ distal tubular enlargement / cyst formation by 3D imaging of cleared whole organoids-on-a-chip; type: cell-based, human; details: for cyst suppression: Z-DEVD-FMK 1 μM, Quercetagetin 10 μM, rhCXCL16 1 ng/ml (FIG. 3D, E)
Description: (§1) H9 (WiCell) human ES cells, H9-derived PKHD1 mutants, and ARPKD patient-derived iPSCs (68) were maintained on hESC-qualified Geltrex (Thermo Fisher Scientific) coated plates using StemFit® Basic02 (Ajinomoto Co., Inc.) supplemented with 10 ng/ml of FGF2 (Peprotech), as previously reported (69).
Heterozygotic (PKHD1+/−) and compound homozygotic (PKHD1−/−) mutant lines were generated using methodology previously outlined (70), which generated clones of isogenic progeny via clonal expansion from single cells. PX459 plasmid encoding a Streptococcus pyogenes Cas9 and guide RNA (sgRNA) targeting the third exon of PKHD1 (5′-[…]-3′; SEQ ID NO:1) was transfected into H9 hESCs to generate the heterozygotic mutant line, which then served as the parental line to generate the compound homozygotic mutant. Transfected cells were selected by transient puromycin treatment. CRISPR/Cas9-induced mutations of individual clones were identified by deep sequencing.
The organoids were seeded onto the chip devices on day 14 of their differentiation and cultured on chip by flowing cell culture medium composed of ARMPI with GlutaMAX, 1% Antibiotic/Antimycotic solution (Gibco), and 1.5% heat-inactivated fetal bovine serum (Gibco). All cell culture medium was pre-equilibrated to the cell culture incubator environment for at least 2 hr before chip assembly and seeding. The kidney organoids-on-a-chip was then held in a cell culture incubator for 30 min under static conditions, before connecting the inlet perfusion tubing to an IPC-N peristaltic pump (Ismatech) and perfusing the cell culture media at 42.7 μl/min overnight in the incubator. The following day (day 15 of organoid differentiation), the sterile filter was removed from the perfusion line to avoid bubble formation at high perfusion speeds, and the perfusion speed was ramped up to 4.27 mL/min. Cell culture medium was changed in the reservoir every 2-3 days.
Full media exchanges were conducted every 2-3 days. Treatment of the kidney organoids-on-a-chip was started at day 16 of their differentiation until day 35.
The chip device was taken out of the incubator for fixation, and the lid was carefully removed in a sterile biosafety cabinet. The kidney organoids adherent on the surface of the ECM were rinsed with PBS, carefully overlayed with 4% PFA, and fixed for 45 min at RT. Post fixation, the samples were washed three times with 0.1% Triton-X (Sigma) for 30 min. Organoids were stained and cleared with ethyl cinnamate (Sigma), as described before (78). The following antibodies were used in these studies: anti-CDH1 (Abcam, ab11512), anti-CFTR (Sigma, HPA021939), anti-LTL (Vector lab, B-1325), anti-PODXL (R&D systems, AF1658), anti-K167 (Dako, m7248), Anti-pS6RP (Cell signaling, 2211S), anti-RAC1 (Developmental Studies Hybridoma Bank, CPTC-RAC1-2), anti-FOS (Abcam, ab190289). Samples were examined by a Zeiss TIRF/LSM 710 confocal microscopy or a Leica […] 8 confocal microscopy, and by using Imaris 3D software (Bitplane).
(§2) Data in all bar charts and dot plots are expressed as mean±s.d. Statistical analysis was done in GraphPad Prism 9, and statistical significance was attributed to values of P<0.05 as determined by one-way ANOVA with Tukey's multiple-comparisons test unless otherwise noted. Different significance levels (P values) are indicated in each figure with asterisks: *P<0.05, **P<0.01, ***P<0.001, and ****P<0.0001. […] FIG. 1F; n=74 LTL+ tubules with flow, n=66 LTL+ tubules in static culture, n=191 LTL+ tubules treated with forskolin, n=32 CDH1+ tubules with flow, n=27 CDH1+ tubules in static culture, and n=104 CDH1+ tubules treated with forskolin. FIG. 2C; n=16 tubules transfected with siControl, n=17 tubules transfected with siKIF3A.

RAC1 = details: cited from earlier work
[2] = system: ARPKD patient-derived organoids; assay: Cyst formation on cAMP induction in static patient-derived organoids; type: cell-based, human
Description: as §1
Kidney organoids were cultured in static condition and treated with 20 μM of forskolin (Sigma, #F6886), a cAMP inducer, from day 14 to day 35.
(§3) FIG. 2J; n=4 (perfusion), n=4 (rest). FIG. 2K; n=3. […] 3 independent experiments were performed for FIG. 3E. […] FIG. 4H; n=4 (control), n=4 (ARPKD). FIG. 4I; n=4 (control), n=4 (ARPKD).

[3] = system: ARPKD patient-derived organoids; details: prior ARPKD organoid model from patient-derived iPS cells, static culture (ref. 17); cited from earlier work
PKHD1−/− organoids [4] = assay: Cyst formation / tubular diameter on forskolin treatment in static culture; type: cell-based, human
Text: as §2, with “siKIF3A. 8 organoids transfected with siControl, and 7 organoids transfected with siKIF3A from 2 independent chips were analyzed in FIG. 2C.” for “siKIF3A.”

[5] = racemic ketorolac 15 or 30 mg; Guo et al. 2015; cited from earlier work
[6] = cited from earlier work
PRDM1 [7] = assay: Quantitative immunohistochemistry for PRDM1; type: cell-based, human; details: PKHD1−/− organoids, T-5224 10 μM, day 23 (FIG. 5F)
Description: as §3

PRDM1 [8] = assay: qPCR for PRDM1 (FOS downstream gene); type: cell-based, human; details: PKHD1−/− and ARPKD patient-derived organoids, flow, T-5224 10 μM, day 16 to 23
Description: as §3

NPTX2 = assay: qPCR for NPTX2 (FOS downstream gene); type: cell-based, human; details: PKHD1−/− and ARPKD patient-derived organoids, flow, T-5224 10 μM, day 16 to 23
Description: as §3

DUSP1 = assay: qPCR for DUSP1 (FOS downstream gene); type: cell-based, human; details: PKHD1−/− and ARPKD patient-derived organoids, flow, T-5224 10 μM, day 16 to 23
Description: as §3

FOS = details: cited from earlier work
[9] = clinical trials for arthritis / humans (ref. 45); cited from earlier work
BAIAP2 = details: flow, R-Naproxen 20 μM
Description: (§4) Total RNA was isolated from kidney organoid samples using TRIzol (Invitrogen, #15596026). cDNA was synthesized from 500 ng of RNA using a High-capacity cDNA Reverse Transcription kit (Applied Biosystems, #4368814) according to the manufacturer's instructions. Real-time PCR was performed using iTaq SYBR green supermix (Bio-Rad, #1725124) and QuantStudio3 Real-time PCR systems. The expression of mRNA was assessed by evaluating threshold cycle (CT) values. The CT values and relative expression levels were normalized by ribosomal protein S18 (RPS18), and the relative amount of mRNA specific to each of the target genes was calculated (n=3 in each experiment).
as §2, with “siKIF3A. 8 organoids transfected with siControl, and 7 organoids transfected with siKIF3A from 2 independent chips were analyzed in FIG. 2C.” for “siKIF3A.”

ARFIP2 [10] = details: flow, R-Naproxen 20 μM
Description: as §4
as §2, with “siKIF3A. 8 organoids transfected with siControl, and 7 organoids transfected with siKIF3A from 2 independent chips were analyzed in FIG. 2C.” for “siKIF3A.”

COX = details: cited from earlier work
ARFIP2 [11] = details: PKHD1−/− organoids, R-Naproxen 20 μM, day 23 (FIG. 5F)
Text: as §2, with “siKIF3A. 8 organoids transfected with siControl, and 7 organoids transfected with siKIF3A from 2 independent chips were analyzed in FIG. 2C.” for “siKIF3A.”

[12] = PKHD1−/− organoids under flow, day 16 to 35, T-5224 10 μM, NSC23766 10 μM, 2-MeOE2 5 μM (FIG. 3D, E)
[13] = PKHD1−/− organoids-on-a-chip, day 16 to 35, flow, R-Naproxen 20 μM, R-Ketorolac 1 and 10 μM, T-5224 10 μM (FIG. 4B, C)
[14] = PKHD1−/− organoids under flow, day 16 to 35
[15] = forskolin 20 μM, static (FIG. 1F right)
[16] = ARPKD patient-derived organoids, day 16 to 23 (FIG. 14)
[17] = PKHD1−/− (CRISPR-mutant) organoids, day 16 to 23 (FIG. 5E)

CCN(CC)CCCC(C)Nc1nc(C)cc(Nc2ccc3nc(C)cc(N)c3c2)n1 (centres unmarked) [NSC23766]
CDH1+ tubular enlargement (PKHD1−/− organoids [1]; [12]): significant reduction

O=C(c1ccccc1)c1ccc2n1CC[C@H]2C(=O)O [R-Ketorolac]
CDH1+ tubular enlargement (PKHD1−/− organoids [1]; [13]): significant reductions | inhibitory effect against RAC1 (RAC1): inhibitory effect against RAC1

Z-DEVD-FMK
cyst suppression (PKHD1−/− organoids [1]; [14]): marginal effect

C=C[C@@]1(C)CC(=O)[C@]2(O)[C@@]3(C)[C@@H](O)CCC(C)(C)[C@@H]3[C@H](O)[C@H](OC(C)=O)[C@@]2(C)O1 [forskolin]
cyst formation ([2]; ARPKD patient-derived organoids, forskolin 5, 10, 20 μM (FIGS. 6A-G)): form cysts | cyst formation in LTL+ proximal tubules ([2]; static organoids derived from ARPKD-patient iPSCs): induced cyst formation | cyst formation in CDH1+ distal nephrons [3]: rarely developed cysts | cyst formation in LTL+ proximal tubules [3]: formed cystic structures | cyst formation (PKHD1−/− organoids [4]; forskolin 20 μM (FIGS. 8A-H)): form cysts | diameter in LTL+ CDH− (proximal) tubules (PKHD1−/− organoids [4]; [15]): increases | diameter in LTL− CDH1+ (distal) tubules (PKHD1−/− organoids [4]; [15]): increases

Nc1ncnc2c1nc(Br)n2[C@@H]1O[C@@H]2COP(=O)(O)O[C@H]2[C@H]1O [8-Br-cAMP, 8-Bromoadenosine 3′,5′-cyclic monophosphate]
cyst formation in CDH1+ distal nephrons [3]: rarely developed cysts | cyst formation in LTL+ proximal tubules [3]: formed cystic structures

O=C(c1ccccc1)c1ccc2n1CCC2C(=O)O (racemic) [racemic ketorolac]
R-ketorolac level [5]: achieved likely therapeutic ranges of R-ketorolac

COc1cc2c(cc1O)CC[C@@H]1[C@@H]2CC[C@]2(C)[C@@H](O)CC[C@@H]12 [2-MeOE2, 2-Methoxyestradiol]
CDH1+ tubular enlargement (PKHD1−/− organoids [1]; [12]): significant reduction

O=c1c(O)c(-c2ccc(O)c(O)c2)oc2cc(O)c(O)c(O)c12 [Quercetagetin]
cyst suppression (PKHD1−/− organoids [1]; [14]): did not affect cyst suppression

COc1ccc2cc([C@H](C)C(=O)O)ccc2c1 [S-Naproxen]
anti-inflammatory effect [6]: has an anti-inflammatory effect | cyst formation (PKHD1−/− organoids [1]; PKHD1−/− organoids cultured under flow, S-Naproxen 20 μM (FIG. 11)): did not inhibit cyst formation | RAC1 inhibitory activity (RAC1): lacks RAC1 inhibitory activity

O=C(O)CCc1cc(C(=O)c2ccc(OC3CCCC3)cc2O)ccc1OCc1ccc2c(O)noc2c1 [T-5224, 3-{5-[4-(cyclopentyloxy)-2-hydroxybenzoyl]-2-[(3-hydroxy-1,2-benzisoxazol-6-yl)methoxy]phenyl}propionic acid]
PRDM1 expression (immunohistochemistry), decreased by flow (PRDM1 [7]): rescue | PRDM1 expression (qPCR) (PRDM1 [8]): reverse expression | NPTX2 expression (qPCR) (NPTX2): reverse expression | DUSP1 expression (qPCR) (DUSP1): reverse expression | FOS inhibition (FOS): selective FOS inhibitor; also recorded: specific FOS inhibitor | safety profile [9]: favorable safety profile; also recorded: proven to be safe in humans | CDH1+ tubular enlargement (PKHD1−/− organoids [1]; [12]): significant reduction | CDH1+ tubular enlargement (PKHD1−/− organoids [1]; [13]): significant reductions

COc1ccc2cc([C@@H](C)C(=O)O)ccc2c1 [R-Naproxen]
BAIAP2 expression (qPCR) (BAIAP2; [16]): rescued | BAIAP2 expression (qPCR) (BAIAP2; [17]): rescued | ARFIP2 expression (qPCR) (ARFIP2 [10]; [16]): rescued | ARFIP2 expression (qPCR) (ARFIP2 [10]; [17]): rescued | COX inhibition (COX): limited COX inhibition | ARFIP2 expression (immunohistochemistry), decreased by flow (ARFIP2 [11]): rescue | CDH1+ tubular enlargement (PKHD1−/− organoids [1]; [13]): significant reductions | cyst suppression (general statement) (PKHD1−/− organoids [1]; present data, R-Naproxen): cyst suppression | RAC1 inhibition (RAC1): enhanced RAC1 inhibition | inhibitory effect against RAC1 (RAC1): inhibitory effect against RAC1

B1: rhCXCL16: recombinant human C—X—C Motif Chemokine Ligand 16 (rhCXCL16) for CXCL16 (protein, UniProt Q9H2A7 30-254, looked up)
C-X-C motif chemokine 16: NEGSVTGSCYCGKRISSDSPPSVQFMNRLRKHLRAYHRCLYYTRFQLLSWSVCGGNKDPWVQELMSCLDLKECGHAYSGIVAHQKHLLPTSPPISQASEGASSDIHTPAQMLLSTLQSTQRPTLPVGSLSSDKELTRPNETTIHTAGHSLAAGPEAGENQKQPEKNAGPTARTSATVPVLCLLAIIFILTAALSYVLCKRRRGQSPQSSPDLPVHYIPVAPDSNT
cyst suppression (PKHD1−/− organoids [1]; [14]): did not affect cyst suppression
